The text below walks through data of patent US11274332B2, “Methods of administering 3,4-diaminopyridine” (SERB SA, priority 2011, dated 2022).

The target of the assay is T1, cloned human Kv1.3 potassium channel (Homo sapiens, UniProt P22001).
T1 construct: expressed in transfected cells
The assay can be described thus: PatchXpress inhibition of cloned human Kv1.3 in CHO cells (Example 6). Format: cell-based. Conditions: hKv1.3, up to 3000 μM. The text has this:
The objective of this study was to examine the in vitro effects and determine the […] of 3,4-DAP phosphate and the metabolite N-(4-aminopyridin-3-yl) acetamide HCl on the following ion channels: cloned human Kv1.1 potassium channel (encoded by the human KCNA1 gene, expressed in HEK293 cells), cloned human Kv1.2 potassium channel (encoded by the human KCNA2 gene, expressed in HEK293 cells), cloned human Kv1.3 potassium channel (encoded by the human KCNA3 gene, expressed in CHO cells), cloned human Kv1.4 potassium channel (encoded by the human KCNA4 gene, expressed in HEK293 cells), cloned human Kv1.5 potassium channel (encoded by the human KCNA5 gene and expressed in CHO cells), responsible for IKur, ultra-rapid delayed rectifier potassium current.
Chemicals used in solution preparation were purchased from Sigma-Aldrich (St. Louis, Mo.), unless otherwise noted, and were of ACS reagent grade purity or higher. Stock solutions of each test article (100 mM, 30 mM and 1.00 mM 3,4-DAP phosphate and 100 mM N-(4-aminopyridin-3-yl)acetamide) were prepared in sterile water and stored refrigerated. […]
In preparation for a recording session, intracellular solution was loaded into the intracellular compartments of the Sealchip16. […] After establishment of a whole-cell configuration, membrane currents were recorded using dual-channel patch clamp amplifiers in the PatchXpress®. […]

T1 sequence (P22001 whole entry): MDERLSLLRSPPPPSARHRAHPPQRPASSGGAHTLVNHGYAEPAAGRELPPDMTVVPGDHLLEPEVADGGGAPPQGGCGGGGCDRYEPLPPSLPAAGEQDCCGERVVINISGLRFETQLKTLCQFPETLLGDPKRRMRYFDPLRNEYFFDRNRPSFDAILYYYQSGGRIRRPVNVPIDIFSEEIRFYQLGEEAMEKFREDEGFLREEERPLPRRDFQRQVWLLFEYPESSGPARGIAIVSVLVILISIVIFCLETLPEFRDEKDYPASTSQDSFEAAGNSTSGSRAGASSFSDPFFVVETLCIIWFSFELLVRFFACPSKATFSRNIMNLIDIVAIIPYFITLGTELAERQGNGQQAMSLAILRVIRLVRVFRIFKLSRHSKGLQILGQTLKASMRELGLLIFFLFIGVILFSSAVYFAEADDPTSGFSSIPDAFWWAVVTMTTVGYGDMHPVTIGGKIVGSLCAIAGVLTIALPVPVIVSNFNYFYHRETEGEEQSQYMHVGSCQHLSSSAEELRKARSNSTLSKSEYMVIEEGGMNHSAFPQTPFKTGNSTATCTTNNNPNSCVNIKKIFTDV

As for `CC(=O)Nc1cnccc1N` [3-N-acetyl amifampridine, N-(4-aminopyridin-3-yl)acetamide], the “activity on K+ channel” value is “inactive”. Besides, the “activity on K+ channel” value (listed as N-acetyl metabolite) was “not active”.
